The record followed here is patent publication US11787769B2 (priority 2019, dated 2023).

Read-outs that look alike come from different tables or passages of the source.

Assay [1] relates to PR8-PB2-Gluc, influenza A/Puerto Rico/8/1934 (PR8) H1N1 virus. As to the kind of experiment: microbe, parasite or virus in culture. It is filed as cell-based. The conditions noted are these: read-out: EC50 (nM), antiviral activity in the infectious IAV.
For assay [2], the system named is influenza A virus (HA of H5N1, Goose/Qinghai/59/05). As to the kind of experiment: microbe, parasite or virus in culture. Type of assay: cell-based. The settings on record: for inhibition at 12.5 µM: H5N1, A549, 12.5 μM, read-out: H5N1 pseudotype assay % inhibition at 12.5 μM.
Where [3] appears, read: Influenza A virus, H5N1, A549, read-out: H5N1 pseudotype assay EC50 (μM).
Setting [4] is: read-out: H5N1 pseudotype assay EC50.

As usually defined, the EC50 is the concentration at which the effect is half-maximal. As a reminder, the inhibition is how much of the control response was suppressed. As to `CC(C)N1CCC(NC(=O)c2c(Cl)cccc2Cl)CC1` [Compound 1, 2,6-Dichloro-N-(1-isopropylpiperidin-4-yl)benzamide], the EC50 is 272 ± 37 nM in assay [1] (Influenza A virus, MDCK) and 3.04 ± 1.13 µM in assay [2] (setting [3]). In assay [2] (Influenza A virus), the inhibition at 12.5 µM is 90%.

Regarding `CC(C)N1CCC(NC(=O)c2c(Cl)cccc2C(F)(F)F)CC1` [Compound 2, 2-Chloro-N-(1-isopropylpiperidin-4-yl)-6-(trifluoromethyl)benzamide], the EC50 in assay [1] (Influenza A virus, MDCK) was found to be 587 ± 140 nM; in assay [2] (setting [3]), 5.62 ± 2.16 µM. Further, the inhibition at 12.5 µM in assay [2] (Influenza A virus) was 85%.

In the case of `CC(C)N1CCC(NC(=O)c2ccccc2C(F)(F)F)CC1` [Compound 3, N-(1-Isopropylpiperidin-4-yl)-2-(trifluoromethyl)benzamide], in assay [2] (Influenza A virus), the inhibition at 12.5 µM was found to be 31%.

As for `CC(C)N1CCC(NC(=O)c2ccc([N+](=O)[O-])cc2Cl)CC1` [Compound 4, 2-Chloro-N-(1-isopropylpiperidin-4-yl)-4-nitrobenzamide], the EC50 in assay [1] (Influenza A virus, MDCK) worked out at 211 ± 43 nM; in assay [2] (setting [3]) it was 0.72 ± 0.09 µM. Also, the inhibition at 12.5 µM in assay [2] (Influenza A virus) was 97%.

Take `CC(C)N1CCC(NC(=O)c2ccc(C(F)(F)F)cc2Cl)CC1` [Compound 5, 2-Chloro-N-(1-isopropylpiperidin-4-yl)-4-(trifluoromethyl)benzamide]: the EC50 in assay [1] (Influenza A virus, MDCK) was 380 ± 182 nM; in assay [2] (setting [3]), 0.36 ± 0.05 µM. Moreover, the inhibition at 12.5 µM in assay [2] (Influenza A virus) came out at 99%.

With `CC(C)N1CCC(NC(=O)c2ncc(Cl)cc2Cl)CC1` [Compound 6, 3,5-Dichloro-N-(1-isopropylpiperidin-4-yl)picolinamide], the inhibition at 12.5 µM in assay [2] (Influenza A virus) was 39%.

`CC(C)N1CCC(NC(=O)c2ncc(C(F)(F)F)cc2Cl)CC1` [Compound 7, 3-Chloro-N-(1-isopropylpiperidin-4-yl)-5-(trifluoromethyl)picolinamide]: in assay [2] (Influenza A virus), the inhibition at 12.5 µM amounted to 76%.

Take `CC(C)N1CCC(NC(=O)c2ncccc2Cl)CC1` [Compound 8, 3-Chloro-N-(1-isopropylpiperidin-4-yl)picolinamide]: the inhibition at 12.5 µM in assay [2] (Influenza A virus) was 40%.

In the case of `CC(C)N1CCC(N(C)C(=O)c2c(Cl)cccc2Cl)CC1` [Compound 9, 2,6-Dichloro-N-(1-isopropylpiperidin-4-yl)-N-methylbenzamide], the EC50 in assay [1] (Influenza A virus, MDCK) was found to be 724 ± 36 nM; in assay [2] (setting [3]), 4.45 µM. Also, the inhibition at 12.5 µM in assay [2] (Influenza A virus) is 91%.

As to `CC(C)N1CCC(N(Cc2ccccc2)C(=O)c2c(Cl)cccc2Cl)CC1` [Compound 10, N-Benzyl-2,6-dichloro-N-(1-isopropylpiperidin-4-yl)benzamide], in assay [2] (12.5 μM), the “H5N1 pseudotype assay % inhibition at 12.5 μM” value is listed as 64%. Besides, in assay [2] (Influenza A virus), the inhibition at 12.5 µM is 67%.

Turning to `O=C(NC1CCN(C2CC2)CC1)c1c(Cl)cccc1Cl` [Compound 11, 2,6-Dichloro-N-(1-cyclopropylpiperidin-4-yl)benzamide], in assay [2] (Influenza A virus), the inhibition at 12.5 µM amounted to 33%.

On to `O=C(NC1CCN(C2CCC2)CC1)c1c(Cl)cccc1Cl` [Compound 12, 2,6-Dichloro-N-(1-cyclobutylpiperidin-4-yl)benzamide], for which the inhibition at 12.5 µM in assay [2] (Influenza A virus) is 76%.

`CC(C)(C)N1CCC(NC(=O)c2c(Cl)cccc2Cl)CC1` [Compound 13, N-(1-(tert-Butyl)piperidin-4-yl)-2,6-dichlorobenzamide]: the EC50 was found to be 113 ± 18 nM in assay [1] (Influenza A virus, MDCK) and 0.51 ± 0.04 µM in assay [2] (setting [3]). In addition, in assay [2] (Influenza A virus), the inhibition at 12.5 µM turned out to be 99%.

As to `CC(C)CN1CCC(NC(=O)c2c(Cl)cccc2Cl)CC1` [Compound 14, 2,6-Dichloro-N-(1-isobutylpiperidin-4-yl)benzamide], the EC50 came out at 852 ± 79 nM in assay [1] (Influenza A virus, MDCK) and 2.15 ± 0.64 µM in assay [2] (setting [3]). Moreover, the inhibition at 12.5 µM in assay [2] (Influenza A virus) is 89%.

`O=C(NC1CCN(C2COC2)CC1)c1c(Cl)cccc1Cl` [Compound 15, 2,6-Dichloro-N-(1-(oxetan-3-yl)piperidin-4-yl)benzamide]: in assay [2] (Influenza A virus), the inhibition at 12.5 µM was determined as 7%.

On to `CC(C)CN1CCC(NC(=O)c2ccc(C(F)(F)F)cc2Cl)CC1` [Compound 17, 2-Chloro-N-(1-isobutylpiperidin-4-yl)-4-(trifluoromethyl)benzamide], for which the inhibition at 12.5 µM in assay [2] (Influenza A virus) was found to be 73%.

Turning to `O=C(NC1CCN(C2CCCCC2)CC1)c1ccc(C(F)(F)F)cc1Cl` [Compound 18, 2-Chloro-N-(1-cyclohexylpiperidin-4-yl)-4-(trifluoromethyl)benzamide], the EC50 in assay [1] (Influenza A virus, MDCK) was 505 ± 174 nM; in assay [2] (setting [3]), 0.91 ± 0.25 µM. Moreover, the inhibition at 12.5 µM in assay [2] (Influenza A virus) amounted to 98%.

For `CC(C)N1CCC(NS(=O)(=O)c2ccc(Cl)cc2Cl)CC1` [Compound 19, 2,4-Dichloro-N-(1-isopropylpiperidin-4-yl)benzenesulfonamide], the inhibition at 12.5 µM in assay [2] (Influenza A virus) was 1%.

Regarding `CC(C)N1CCCC(NC(=O)c2c(Cl)cccc2Cl)C1` (stereo not drawn) [Compound 20, 2,6-Dichloro-N-(1-isopropylpiperidin-3-yl)benzamide], the inhibition at 12.5 µM in assay [2] (Influenza A virus) amounted to 14%.

`CC(C)N1CCC(CNC(=O)c2c(Cl)cccc2Cl)CC1` [Compound 21, 2,6-Dichloro-N-((1-isopropylpiperidin-4-yl)methyl)benzamide]: in assay [2] (Influenza A virus), the inhibition at 12.5 µM stood at 23%.

For `CC(C)N1CCC(NC(=O)c2c(Cl)cccc2Cl)C1` (stereo not drawn) [Compound 22, 2,6-Dichloro-N-(1-isopropylpyrrolidin-3-yl)benzamide], the inhibition at 12.5 µM in assay [2] (Influenza A virus) worked out at 11%.

`CC(C)N1CCCC(NC(=O)c2c(Cl)cccc2Cl)CC1` (stereo not drawn) [Compound 23, 2,6-Dichloro-N-(1-isopropylazepan-4-yl)benzamide]: the inhibition at 12.5 µM in assay [2] (Influenza A virus) came out at 71%.

On to `CC(C)N1CC2C(C1)C2NC(=O)c1c(Cl)cccc1Cl` (stereo not drawn) [Compound 24, 2,6-Dichloro-N-(3-isopropyl-3-azabicyclo[3. 1.0]hexan-6-yl)benzamide], for which, in assay [2] (Influenza A virus), the inhibition at 12.5 µM amounted to 61%.

Turning to `CC(C)N1CCN(C(=O)c2c(Cl)cccc2Cl)CC1` [Compound 25, (2,6-Dichlorophenyl)-(4-isopropylpiperazin-l-yl)methanone], the “H5N1 pseudotype assay % inhibition at 12.5 μM” value in assay [2] was found to be 4%.

In the case of `CC(C)N1CCC2(CC1)OCCN2C(=O)c1c(Cl)cccc1Cl` [Compound 26, (2,6-Dichlorophenyl)-(8-isopropyl-1-oxa-4,8-diazaspiro[4.5]decan-4-yl)methanone], the inhibition at 12.5 µM in assay [2] (Influenza A virus) stood at 19%.

Regarding `CC(C)N1CCC(C)(NC(=O)c2c(Cl)cccc2Cl)CC1` [Compound 27, 2,6-Dichloro-N-(1-isopropyl-4-methylpiperidin-4-yl)benzamide], the inhibition at 12.5 µM in assay [2] (Influenza A virus) is 75%.

As to `CO[C@H]1CN(C(C)C)CC[C@H]1NC(=O)c1c(Cl)cccc1Cl` [Compound 28, 2,6-Dichloro-N-((3S,4R)-1-isopropyl-3-methoxypiperidin-4-yl)benzamide], the inhibition at 12.5 µM in assay [2] (Influenza A virus) was found to be 64%.

On to `CC(C)N1CC[C@H](NC(=O)c2c(Cl)cccc2Cl)[C@@H](F)C1` [Compound 29, 2,6-Dichloro-N-((3S,45)-3-fluoro-1-isopropylpiperidin-4-yl)benzamide], for which the EC50 in assay [1] was 885 ± 50 nM; in assay [2] (setting [4]), 1.81 ± 0.45 µM. The “H5N1 pseudotype assay % inhibition at 12.5 μM” value in assay [2] (12.5 μM) was found to be 87%.

In the case of `CC(C)N1CCC(NC(=O)c2c(Cl)cccc2Cl)C(F)(F)C1` (stereo not drawn) [Compound 30, 2,6-Dichloro-N-(3,3-difluoro-1-isopropylpiperidin-4-yl)benzamide], in assay [2] (Influenza A virus), the inhibition at 12.5 µM is 77%.

As to `CC(C)N1CC[C@H](NC(=O)c2ccc(C(F)(F)F)cc2Cl)[C@@H](F)C1` [Compound 31, 2-Chloro-N-((3S,45)-3-fluoro-1-isopropylpiperidin-4-yl)-4-(trifluoromethyl)benzamide], the EC50 was determined as 324 ± 105 nM in assay [1] and 1.16 ± 0.67 µM in assay [2] (setting [4]). Besides, the “H5N1 pseudotype assay % inhibition at 12.5 μM” value in assay [2] (12.5 μM) worked out at 93%.
